pIC50: −log10 of the molar value.
Columns and labels:
[1] = system: BT20; experiment: Anti-proliferation assay (PrestoBlue) and IC50 determination; type: cell-based, human
Protocol: (§1) BT20 and MCF-7, human breast carcinoma cell lines (ATCC), were maintained in RPMI 1640 and Dulbecco's Modified Eagle Medium (DMEM) (Sigma), respectively. THP-1, a human monocytic leukemic cell line (ATCC), was maintained in RPMI 1640. HMEC, a normal human mammary epithelial cell line (ATCC), was maintained in McCoy's 5A (ATCC). All mediums were supplemented with 10% fetal bovine serum (FBS) (Gibco) and 1% penicillin-streptomycin and all cells were incubated in a humidified atmosphere with 5% CO2 at 37° C.
(§2) The proliferation inhibition potential of DMDD was determined in human breast cancer cell lines MCF-7 and BT20 by a fluorescence dye staining method with the normal cell line HMEC serving as a control. Cells were seeded at a density of 4˜5×10^3 cells/well in a 96-well tissue culture-treated plate (Corning Costar) and were incubated overnight. They were then treated with DMDD at final concentrations of 320 μM, 100 μM, 32 μM, 10 μM, 3.2 μM, 1 μM, and 0.32 μM. An experimental control with cells only was also included. After incubation for 48 h, the viability of cells was assessed using PrestoBlue dye (Invitrogen) according to manufacturer's protocol. The fluorescence intensity was measured on a SpectraMax M2e microplate reader (Molecular Devices, Inc.) at a fluorescent excitation wavelength of 555 nm and emission wavelength of 590 nm. The results were expressed as a percentage, relative to untreated control cells, and the half maximal inhibitory concentration (IC50) values were calculated using non-linear regression analysis.

[2] = system: MCF-7; experiment: as above; type: cell-based, human
Protocol: as §1, §2

[3] = system: HMEC; experiment: Anti-proliferation assay (PrestoBlue), normal cell control; type: cell-based, human; conditions: for cell death: HMEC
Protocol: as §1, §2

[4] = system: BT20; experiment: Multi parameter cytotoxicity measurement (HCS); type: cell-based, human
Protocol: (§3) MCF-7 and BT20 cells were seeded in a 96-well plate (Corning Costar) at a density of 4,000 cells/well and subsequently treated with different concentrations (10, 32, 100 μM) of DMDD for 48 h. Non-treated cells and cells treated with 100 μM Valinomycin were used as negative (control) and positive controls, respectively. Afterwards, the cells were stained with a mixture of fluorescent dyes including Hoechst 33342, cell permeability dye and mitochondrial membrane potential dye (Thermo Scientific). These dyes indicated changes in nuclear morphology (Channel 1), cell membrane permeability (Channel 2) and mitochondrial transmembrane potential (Channel 3), respectively. The cells were fixed and washed, and images for each fluoroprobe were acquired at different channels using suitable filters with a 20× objective and analyzed on the Arrayscan VTI HCS Reader (Thermo Scientific). The Cell Health Profiling BioApplication (Thermo Scientific) was used for image acquisition and analysis. For each well, at least 400 cells were automatically acquired and analyzed. The average fluorescent intensity was used to quantify changes in each channel.

[5] = system: MCF-7; experiment: Multi parameter cytotoxicity measurement (HCS); type: cell-based, human; conditions: MCF-7, 48 h, dose-dependent
Protocol: as §3

[6] = system: BT20; experiment: Apoptosis assay (Annexin V/7-AAD); type: cell-based, human; conditions: BT20, 48 h, concentration-dependent
Protocol: (§4) MCF-7 and BT20 cells were seeded in a 96-well plate (Corning Costar) at a density of 8,000 cells/well and were subsequently treated with different concentrations (10, 32, 100 μM) of DMDD for 48 h. Afterwards, the cells were stained with Annexin V (Millipore) and 7-Aminoactinomycin (7-AAD) (Millipore), and analyzed on a Guava flow cytometer using InCyte software (Millipore).

[7] = system: MCF-7; experiment: Apoptosis assay (Annexin V/7-AAD); type: cell-based, human; conditions: MCF-7, 48 h, concentration-dependent
Protocol: as §4

[8] = system: caspase 3/7 in MCF-7 cells; experiment: Caspase-Glo 3/7 activation assay; type: cell-based, human; conditions: MCF-7, 4 h, concentration-dependent
Protocol: Caspase 3/7 and caspase 8 activities were analyzed using an in-situ luminescent maker in MCF-7 and BT20 cells respectively. […] Caspases activity was then determined using the Caspase-Glo 3/7 Assay (Promega) or the Caspase-Glo 8 Assay (Promega) according to the manufacturer's instructions. Briefly, cells were incubated with Caspase-Glo 3/7 substrate or Caspase-Glo 8 substrate and the luminescence of each sample was measured using a SpectraMax M2e Microplate Reader (Molecular Devices).

[9] = system: caspase 3/7 in BT20 cells; experiment: Caspase-Glo 3/7 activation assay; type: cell-based, human; conditions: BT20, 4 h, concentration-dependent
[10] = system: caspase 8 in BT20 cells; experiment: Caspase-Glo 8 activation assay; type: cell-based, human; conditions: BT20, 4 h, depending on the concentration
Protocol: (§5) Caspase 3/7 and caspase 8 activities were analyzed using an in-situ luminescent maker in MCF-7 and BT20 cells respectively. Cells were seeded in a white 96-well plate (Greiner), treated with 100 μM DMDD for 4 h. Caspases activity was then determined using the Caspase-Glo 3/7 Assay (Promega) or the Caspase-Glo 8 Assay (Promega) according to the manufacturer's instructions. Briefly, cells were incubated with Caspase-Glo 3/7 substrate or Caspase-Glo 8 substrate and the luminescence of each sample was measured using a SpectraMax M2e Microplate Reader (Molecular Devices).

[11] = system: caspase 8 in MCF-7 cells; experiment: Caspase-Glo 8 activation assay; type: cell-based, human; conditions: MCF-7, 4 h, depending on the concentration
Protocol: as §5

[12] = system: BT20; experiment: Cytochrome c release assay; type: cell-based, human; conditions: BT20, 48 h
Protocol: (§6) MCF-7 and BT20 cells were seeded in a 96-well plate (Corning Costar) at a density of 8,000 cells/well and were subsequently treated with 100 μM of DMDD for 48 h. The percentage of cells releasing cytochrome c from mitochondria was determined using the FlowCellect Cytochrome c Kit (Millipore) according to the manufacturer's protocol. Briefly, cells were permeabilized, fixed, and stained with either anti-IgG1-FITC Isotype control or anti-Cytochrome c-FITC dye. Data was acquired and analyzed using a Guava flow cytometer and InCyte software (Millipore).

[13] = system: MCF-7; experiment: Cytochrome c release assay; type: cell-based, human; conditions: MCF-7, 48 h
Protocol: as §6

[14] = system: BT20; experiment: Oxidative stress determination (DHE, HCS); type: cell-based, human; conditions: 48 h
Protocol: (§7) MCF-7 and BT20 cells were seeded in a 96-well tissue culture-treated plate (Corning Costar) at a density of 8,000 cells/well and were subsequently treated with different concentrations (10, 32, 100 μM) of DMDD for 48 h. Non-treated cells served as negative control, and cells treated with 1 μM Retenone served as positive control. Afterwards, the cells were stained with Hoechst 33342 (Thermo Scientific) and dihydroethidium (DHE) (Sigma), fixed and evaluated on an ArrayScan VTI HCS Reader (Thermo Scientific). The generation of ROS in cells was quantified by the oxidation of non-fluorescent DHE to fluorescent ethidium, which subsequently binds to DNA. The Nuclear Translocation BioApplication software (Thermo Scientific) was used for image acquisition and analysis. For each well, at least 400 cells were automatically acquired and analyzed. Oxidative stress activation was assessed by the DHE staining in the nucleus and measured by the average intensity of fluorescent ethidium in the identified nuclear region (MEAN_CircAvgIntenCh2).

[15] = system: MCF-7; experiment: Oxidative stress determination (DHE, HCS); type: cell-based, human; conditions: 48 h
Protocol: as §7

[16] = system: BT20; experiment: Cell cycle analysis (PI staining); type: cell-based, human; conditions: BT20, 24 h; increased from 46%; not concentration-dependent
Protocol: (§8) MCF-7 and BT20 cells were first synchronized in the G0 phase by culturing cells for 24 h in serum-free medium, and then treated with 100 μM DMDD for 24 h. Cell cycle analysis was performed using propidium iodide (PI) (Millipore) staining as described (27). Cells were analyzed using a Guava flow cytometer with InCyte software (Millipore).

[17] = system: MCF-7; experiment: Cell cycle analysis (PI staining); type: cell-based, human; conditions: MCF-7, 24 h; increased from 52%; not concentration-dependent
Protocol: as §8

[18] = system: LPS-induced TNF-α production in THP-1 cells; experiment: Human TNF-α ELISA, LPS induced THP-1 cells; type: cell-based; conditions: THP-1, 12.5-50 μM pretreatment 30 min, 100 ng/ml LPS 4 h
Protocol: THP-1 cells were seeded in a 96 well plate at a density of 5×10^5 cells/well, and incubated with 100 nM phorbol-12-myristate-13-acetate (PMA) (Sigma) for 72 h. […] Dexamethasone at 1 μM (Sigma) was used as a positive control. After 4 h of stimulation, supernatants were collected for the quantification of human TNF-α using the Duoset enzyme-linked immunosorbent assay (ELISA) development kit (R&D Systems). AlamarBlue cell viability reagent (Invitrogen) was used to access cell integrity, after the supernatant was removed, at a fluorescent excitation wavelength of 555 nm and emission wavelength of 590 nm.

[19] = system: THP-1; experiment: AlamarBlue cell viability of THP-1 cells; type: cell-based, human; conditions: with or without LPS stimulation
Protocol: THP-1 cells were seeded in a 96 well plate at a density of 5×10^5 cells/well, and incubated with 100 nM phorbol-12-myristate-13-acetate (PMA) (Sigma) for 72 h. After washing the wells with warm RPMI 1640 medium, cells were pretreated with various concentrations of DMDD (10, 32, 100 μM) for 30 minutes followed by 100 ng/ml Salmonella enterica serotype typhimurium lipopolysaccharide (LPS) (Sigma). Dexamethasone at 1 μM (Sigma) was used as a positive control. After 4 h of stimulation, supernatants were collected for the quantification of human TNF-α using the Duoset enzyme-linked immunosorbent assay (ELISA) development kit (R&D Systems). AlamarBlue cell viability reagent (Invitrogen) was used to access cell integrity, after the supernatant was removed, at a fluorescent excitation wavelength of 555 nm and emission wavelength of 590 nm.

[20] = system: NF-κB nuclear translocation in MCF-7 cells; experiment: Inhibition of TNF-α activated NF-κB translocation (HCS); type: cell-based, human; conditions: MCF-7, 2 h, 10 ng/ml TNF-α; concentration-dependent
Protocol: MCF-7 cells were seeded in a 96 well plate (Corning Costar) at a density of 8,000 cells/well and then treated with 100 μM DMDD for 2 h, followed by the addition of 10 ng/ml tumor necrosis factor-alpha (TNF-α) (Sigma). Untreated cells and cells treated with 10 ng/ml TNF-α alone served as controls. Cells were fixed, permeabilized, and sequentially stained with Nuclear factor kappa B (NF-κB) primary antibody, Dylight 488-conjugated secondary antibody, and Hoechst 33342 dye. The Hoechst and DyLight fluorophores detect changes in nuclear morphology (blue fluorescence) and NF-κB distribution (green fluorescence), respectively. The samples were analyzed on an Arrayscan VTI HCS Reader (Thermo Scientific). The Nuclear Translocation BioApplication (Thermo Scientific) was used for image acquisition and analysis. For each well, at least 400 cells were automatically acquired and analyzed. The translocation index was calculated by measuring the average intensity difference of NF-κB between the identified cytoplasmic region and nuclear region (MEAN_CircRingAvgIntenDiffCh2).

[21] = system: NF-κB nuclear translocation in BT20 cells; experiment: as above; type: cell-based, human; conditions: BT20, 10 ng/ml TNF-α; 10 μM more significant than 32 and 100 μM
[22] = diabetic mouse model; cited from earlier work
[23] = single dose 5,000 mg/kg body weight; cited from earlier work
[24] = system: caspase-3, -8, -9 expression in pancreas tissue; conditions: pancreas tissue of mice; cited from earlier work

Structure (SMILES): CCCCCCCCCCCCC1=CC(=O)C=C(OC)C1=O [DMDD, 2-dodecyl-6-methoxycyclohexa-2,5-diene-1,4-dione]
- cell death ([1]; BT20, 3.2 μM): 43.8%
- cell death ([1]; BT20, 10 μM): 63.5%
- pIC50 ([1]; Homo sapiens, BT-20, BT20, 48 h treatment): 5.30
- pIC50 ([2]; Homo sapiens, MCF7, MCF-7, 48 h treatment): 5.46
- cell death ([2]; MCF-7, 3.2 μM): 49.9%
- cell death ([2]; MCF-7, 10 μM): 84.5%
- cell death ([3]; 3.2 μM): not affected
- cell death ([3]; 10 μM): 12.7%
- pIC50 ([3]; Homo sapiens, HMEC normal cells, 48 h treatment): 4.32
- nuclear morphology ([4]; BT20, 100 μM, 48 h): nuclear condensation
- mitochondrial membrane potential ([4]; BT20, 48 h, dose-dependent): loss of mitochondrial potential
- plasma membrane permeability ([4]; BT20, 48 h, dose-dependent): increased plasma membrane permeability
- mitochondrial membrane potential [5]: loss of mitochondrial potential
- plasma membrane permeability [5]: increased plasma membrane permeability
- apoptosis induction [6]: induced apoptosis
- apoptosis induction [7]: induced apoptosis
- caspase 3/7 activity vs untreated cells [8]: increased significantly
- caspase 3/7 activity vs untreated cells [9]: increased significantly
- caspase 8 activity increase [10]: 2-5 fold
- caspase 8 activity increase [11]: 2-5 fold
- cytochrome c release from mitochondria [12]: released
- cytochrome c release from mitochondria [13]: released
- ROS level versus untreated control ([14]; BT20, 10 μM): nearly two-fold
- ROS level versus non-treated control ([14]; BT20, 33 μM): nearly three-fold
- ROS level versus untreated control ([14]; BT20, 100 μM): nearly two-fold
- ROS level versus untreated control ([15]; MCF-7, 10 μM): nearly two-fold
- ROS level versus non-treated control ([15]; MCF-7, 33 μM): nearly three-fold
- ROS level versus untreated control ([15]; MCF-7, 100 μM): nearly two-fold
- percentage of G1 phase cells [16]: 65%
- percentage of G1 phase cells [17]: 71%
- TNF-α level in supernatants relative to LPS alone [18]: significant reduction
- viability of THP-1 cells [19]: did not affect the viability
- inhibition of TNF-α-induced NF-κB nuclear translocation [20]: significant inhibition
- inhibition of TNF-α-induced NF-κB nuclear translocation [21]: significant inhibition
- effective dosage [22]: 12.5 to 25 mg/kg
- acute toxicity [23]: did not cause any acute toxicity
- caspase-3, -8, -9 expression [24]: significantly reduced
